Earlier results in patent US20180280562A1, “Fibrous Structures Comprising Sensates” (The Procter & Gamble Company, priority 2017, published 2018).

Conditions: concentration where the cooling effect could be clearly recognized

SMILES | cooling threshold
CC(C)[C@@H]1CC[C@@H](C)C[C@H]1O [L-menthol] | about 800 ppb
CC(C)[C@@H]1CC[C@@H](C)C[C@@H]1O [d-neomenthol] | about 25,000 ppb
CC(C)[C@@H]1CC[C@@H](C)C[C@@H]1O [1-neomenthol] | about 3,000 ppb
